Assay results reported in paper PMC12723449, “From Pharmacophore to Warhead: NAD^+‐Targeting Triazoles as Mechanism‐Based Sirtuin Inhibitors” (Angewandte Chemie (International Ed. in English), 2025).

T1: SIRT3 (Homo sapiens, UniProt Q9NTG7)
T1 construct: Human SIRT3118-395 was expressed and purified as previously described.[5]; made in house
T1 sequence (Q9NTG7 118-395 limits assumed): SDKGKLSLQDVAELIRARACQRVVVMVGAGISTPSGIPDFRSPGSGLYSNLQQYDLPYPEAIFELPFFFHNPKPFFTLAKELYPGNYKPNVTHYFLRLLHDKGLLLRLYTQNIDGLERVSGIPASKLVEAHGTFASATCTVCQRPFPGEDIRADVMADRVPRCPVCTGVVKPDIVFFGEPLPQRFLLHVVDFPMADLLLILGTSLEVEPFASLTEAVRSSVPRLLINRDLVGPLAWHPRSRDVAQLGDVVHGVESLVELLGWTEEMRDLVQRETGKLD

T2: SIRT2 (Homo sapiens, UniProt Q8IXJ6)
T2 construct: For assay experiments, strep-tagged human SIRT1134−747 and SIRT256-356 were expressed and purified as previously; Strep-tag; made in house; host or cells: E. coli BL21 Star (DE3)
T2 sequence (Q8IXJ6 56-356 limits assumed): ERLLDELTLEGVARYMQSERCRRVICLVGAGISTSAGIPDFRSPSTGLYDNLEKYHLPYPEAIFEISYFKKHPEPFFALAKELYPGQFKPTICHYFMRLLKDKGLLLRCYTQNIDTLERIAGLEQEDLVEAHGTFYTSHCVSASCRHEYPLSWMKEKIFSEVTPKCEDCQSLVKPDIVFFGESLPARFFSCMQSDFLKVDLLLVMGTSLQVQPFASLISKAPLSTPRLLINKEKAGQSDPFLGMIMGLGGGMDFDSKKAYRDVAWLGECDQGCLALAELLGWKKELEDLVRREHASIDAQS

T3: SIRT1 (Homo sapiens, UniProt Q96EB6)
T3 construct: For assay experiments, strep-tagged human SIRT1134−747 and SIRT256-356 were expressed and purified as previously; Strep-tag; made in house; host or cells: E. coli BL21 Star (DE3)
T3 sequence (Q96EB6 134-747 limits assumed): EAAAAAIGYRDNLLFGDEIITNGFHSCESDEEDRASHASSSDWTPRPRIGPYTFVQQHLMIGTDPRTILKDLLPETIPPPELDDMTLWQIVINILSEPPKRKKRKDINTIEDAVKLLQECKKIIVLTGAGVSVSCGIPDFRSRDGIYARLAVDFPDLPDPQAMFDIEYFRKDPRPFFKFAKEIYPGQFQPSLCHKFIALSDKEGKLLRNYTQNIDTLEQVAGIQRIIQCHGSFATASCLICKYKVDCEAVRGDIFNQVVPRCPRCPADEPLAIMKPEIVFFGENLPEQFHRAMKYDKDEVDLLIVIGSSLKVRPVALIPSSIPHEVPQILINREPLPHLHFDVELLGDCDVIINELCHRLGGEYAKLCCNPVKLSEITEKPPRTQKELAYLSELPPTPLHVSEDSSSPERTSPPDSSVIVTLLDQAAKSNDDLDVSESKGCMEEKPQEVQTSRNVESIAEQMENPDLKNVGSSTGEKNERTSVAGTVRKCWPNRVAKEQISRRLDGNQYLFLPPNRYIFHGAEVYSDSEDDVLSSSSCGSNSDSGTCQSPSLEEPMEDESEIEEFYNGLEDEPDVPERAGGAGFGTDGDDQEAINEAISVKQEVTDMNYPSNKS

T4: NanoLuc–SIRT2 fusion protein in HEK293T cells (Homo sapiens, UniProt Q8IXJ6)
T4 construct: HEK293T cells stably expressing the NanoLuc-SIRT250-364-fusion target protein were seeded into the coated plates; expressed in transfected cells; host or cells: HEK293T (stably expressing)
T4 sequence (Q8IXJ6 50-364 limits assumed): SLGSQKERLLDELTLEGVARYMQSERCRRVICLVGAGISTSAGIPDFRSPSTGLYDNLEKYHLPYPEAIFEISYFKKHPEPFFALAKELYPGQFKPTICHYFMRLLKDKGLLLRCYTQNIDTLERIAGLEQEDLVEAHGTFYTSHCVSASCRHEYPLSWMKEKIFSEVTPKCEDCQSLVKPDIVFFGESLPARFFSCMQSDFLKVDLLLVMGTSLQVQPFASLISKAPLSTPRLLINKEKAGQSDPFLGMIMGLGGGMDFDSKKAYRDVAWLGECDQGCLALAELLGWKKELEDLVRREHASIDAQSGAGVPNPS

T5: NanoLuc–SIRT2 fusion protein in HEK293T cells (Homo sapiens, UniProt Q8IXJ6)
T5 construct: transfected HEK293T cells expressing the NanoLuc-tagged SIRT250-356 fusion protein were used instead of transient; expressed in transfected cells; host or cells: HEK293T (stably transfected)
T5 sequence (Q8IXJ6 50-356 limits assumed): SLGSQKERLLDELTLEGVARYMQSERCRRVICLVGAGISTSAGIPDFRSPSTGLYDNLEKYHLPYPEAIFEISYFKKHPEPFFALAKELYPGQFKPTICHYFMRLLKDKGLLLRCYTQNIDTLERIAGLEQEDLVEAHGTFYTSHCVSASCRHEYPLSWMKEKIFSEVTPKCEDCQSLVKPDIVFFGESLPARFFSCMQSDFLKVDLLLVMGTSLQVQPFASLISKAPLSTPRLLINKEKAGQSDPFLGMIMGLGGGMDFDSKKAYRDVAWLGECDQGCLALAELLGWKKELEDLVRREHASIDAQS


Experiments:
SIRT3 = target: T1, SIRT3; assay: Fluorescence-based deacetylation assay (ZMAL-assay), SIRT3; type: biochemical; details: 37 °C, assay limit 0.10 µM; for IC50: read-out: SIRT3 (deac.) IC50
Description: (§1) Determination of IC50 values (SIRT1, SIRT2, SIRT3) via fluorescence-based deacetylation assay […]
(§2) The fluorescence-based deacetylation assay was conducted in a black 384-well microplate (OptiPlate-384 F, PerkinElmer) with a total volume of 30 µL per well and a final DMSO concentration of 2% (v/v) according to a […]
(§3) concentration of 100 nM) in assay buffer (50 mM Tris, 137 mM NaCl, 2.7 mM KCl, 1m MgCl2, 0.01% Tween, 0.05 mg/mL BSA, 0.2 mM TCEP, pH 8.0), 5 µL of substrate (ZMAL, final concentration of 10.5 µM), 5 µL of NAD+ (final concentration of 500 µM) and 10 µL of inhibitor solution (final concentration of 30 µM – 0.014 µM, serial 1:3 dilutions) was incubated at 37 °C and 300 rpm for 4 h. A solution of trypsin (final concentration of 0.5 mg/mL) and nicotinamide (final concentration of 4 mM) was added and incubated at 37 °C and 300 rpm for 30 min to stop the reaction. Samples with 2% (v/v) DMSO instead of inhibitor were prepared as a positive control, and samples with 2% (v/v) DMSO instead of SIRT enzyme were prepared as a negative control. Fluorescence intensity was measured with a microplate reader (λEx = 380-10 nm, λEm = 460 nm, BMG POLARstar Optima, BMG Labtech, Germany). IC50 values were then determined using a nonlinear regression fit with Origin Pro 2019 software. All experiments were performed at least in duplicates. […]

SIRT2 [1] = target: T2, SIRT2; assay: Fluorescence-based deacetylation assay (ZMAL-assay), SIRT2; type: biochemical; details: 37 °C, assay limit 0.10 µM, read-out: SIRT2 (deac.) IC50
Description: as §1, §2, §3

SIRT1 = target: T3, SIRT1; assay: Fluorescence-based deacetylation assay (ZMAL-assay), SIRT1; type: biochemical; details: 37 °C, assay limit 0.10 µM; for IC50: read-out: SIRT1 (deac.) IC50
Description: as §1, §2, §3

SIRT2 [2] = target: T2, SIRT2; assay: Fluorescence-based demyristoylation assay (BSA-Assay); type: biochemical
Description: Determination of IC50 values (SIRT2) via fluorescence-based demyristoylation assay (BSA-Assay) The fluorescence-based demyristoylation assay was conducted in a continuous manner in a black 384-well microplate (OptiPlate-384 F, PerkinElmer) with a total volume of 40 µL per well and a final DMSO concentration of 5% (v/v), following a published procedure.[9] A mixture of 14 µL SIRT2 (final concentration of 1 nM) in assay buffer (20 mM Tris, 150 mM NaCl, […], pH 7.8) freshly supplemented with 2 mg/mL of BSA, 14 µL of substrate (F4, KM = 33 ± 5 nM[9], final concentration of 40 nM) and 2 µL of inhibitor solution (final concentration of 100 µM – 0.002 µM, serial 1:2 or 1:4 dilutions) was incubated at 25 °C and 350 rpm for 5 min. Samples with 5% (v/v) DMSO instead of inhibitor were measured as a positive control, and samples with assay buffer and 5% (v/v) DMSO instead of SIRT2 were measured as a negative control. The reaction was started with the addition of 10 µL NAD+ (final concentration of 500 µM) and the product formation was immediately monitored by the change of the fluorescence intensity at 25 °C for 20 min. For NAD+ preincubation experiments, instead of the substrate, 10 µL of NAD+ (final concentration of 500 µM) was added to the solution and incubated at 25 °C and 350 rpm for 15 min. The reaction was started with the addition of 14 µL substrate (final concentration of 40 nM) and the product formation was immediately monitored by the change of the fluorescence intensity at 25 °C every 60 s for 20 min using a microplate reader (λEx = 485 nm, λEm = 530-10 nm, BMG POLARstar Optima, BMG Labtech, Germany).
The activity was normalized using the positive control as 100% and the negative control as 0%. The normalized activity (v/v0) was plotted as a function of the logarithm of the inhibitor concentration [I], and a nonlinear fit was performed according to the following equation to determine the IC50 value.[9] […]

[3] = target: T4, NanoLuc–SIRT2 fusion protein in HEK293T cells; assay: Kinetic NanoBRET washout assay (target residence time); type: cell-based; details: 8 µM (10 × EC50), 2 h preincubation, 2 h washout
Description: NanoBRET washout assay for determination of target residence time
A NanoBRET-based washout assay was used to assess the target residence time of inhibitors for SIRT2 in living cells. White, flat-bottom 96-well plates (PerkinElmer) were pre-coated with poly-L-lysine (Sigma-Aldrich) to enhance cell adherence. Briefly, each well was treated with poly-L-lysine solution for 5 min at room temperature, followed by removal of the coating solution and air-drying before seeding.
Cells were treated with the indicated inhibitor
After incubation, the inhibitor-containing medium was aspirated, and a washout procedure was performed to remove unbound inhibitor. Each well was washed twice by sequential addition and removal of 100 µL Opti-MEM (Thermo Fisher Scientific). Following the final wash, 90 µL Opti-MEM was added per well, followed by 100 µL of 2× Nano-Glo® substrate solution (Promega) and 10 µL of 20× SIRT2-Tracer solution.
BRET measurements were recorded kinetically using a Tecan Spark® plate reader equipped with donor (460 nm)
The BRET ratio was monitored over time to track the re-binding of the

[4] = target: T5, NanoLuc–SIRT2 fusion protein in HEK293T cells; assay: NanoBRET cellular target engagement assay; type: cell-based; details: without digitonin
Description: The NanoBRET target engagement assay was performed as previously described[2] with the modification that stably transfected HEK293T cells expressing the NanoLuc-tagged SIRT250-356 fusion protein were used instead of transient transfection. Briefly, HEK293T-NLuc- SIRT250-356 cells were cultured under standard conditions (37 °C, 5% CO2) in DMEM supplemented with 10% fetal bovine serum, 2 mM glutamine, and 300 µg/mL hygromycin as a selection marker. For the assay, cells were trypsinized, resuspended in Opti-MEM® reduced serum medium, and adjusted to a concentration of 2 × 10^5 cells per mL. […]
µM was used. Serially diluted inhibitor and tracer were added to the cell suspension, and 100 μL were seeded into 96-well white, sterile, nonbinding surface plates. To evaluate the cellular permeability of LTDi-1 (6), the non-ionic detergent digitonin (50 µg/ml) was added. Plates were incubated at 37 °C with 5% CO2 for 2 h. For BRET measurements, NanoBRET NanoGlo Substrate (Promega cat. #N1571) was added to the wells according to the […]
All measurements were performed using the 2102 EnVisionTM Multilabel Reader (PerkinElmer), equipped with a 460 nm filter (donor) and a 615 nm filter (acceptor). The BRET ratio was calculated as the ratio of acceptor to donor signal, and data were normalized to vehicle-treated controls. Apparent intracellular binding affinities (EC50 values) were determined by fitting dose-response curves using nonlinear regression analysis in GraphPad Prism. […]

SIRT2 [5] = target: T2, SIRT2; assay: Differential scanning fluorimetry (DSF) / fluorescence thermal shift assay; type: binding; details: 10 µM compound, with NAD+ addition
Description: Differential scanning fluorimetry (DSF) assay
Differential scanning fluorimetry assays were performed in white 96-well plates (Hard-Shell PCR Plates, BioRad, USA) with a total volume of 20 µL per well and a final DMSO concentration of 5% (v/v), following a published
A solution of 10 µL SIRT2 (final concentration of 6.0 µM) and SYPRO Orange (5x, Sigma-Aldrich, Germany) in assay buffer (25 mM Tris-HCl, 150 mM NaCl, 1 mM DTT, pH 8.0) was mixed with 10 µL of compound and incubated at 25 °C and 350 rpm for 5 min. Where applicable, NAD+ was added to a final concentration of 2.5 mM. Fluorescence
(C1000 Touch™ Thermal Cycler, CFX96™ Real-Time System, BioRad, USA). Melting temperatures were determined using GraphPad Prism, following a published procedure.[6]

[6] = target: BT-6 (biotinylated analogue of compound 6); assay: BLI; SIRT2 (25–400 nM) incubated 1 h with BT-6 (500 nM) without NAD+, then immobilised on streptavidin-coated biosensors; dissociation followed
[7] = target: BT-6 (biotinylated analogue of compound 6); assay: BLI; SIRT2 (25–400 nM) incubated 1 h with BT-6 (500 nM) and NAD+ (500 µM), then immobilised on streptavidin-coated biosensors; dissociation followed
[8] = 15 min NAD+ preincubation, read-out: IC50, SIRT2 demyristoylation after NAD+ preincubation
[9] = BSA-Assay, 25 °C, read-out: SIRT2 (demyr.) IC50

Row | Molecule | IC50 (SIRT3) [nM] | IC50 (SIRT2 [1]) [nM] | IC50 (SIRT1) [nM] | IC50 (SIRT2 [2]; [8]) [nM] | IC50 (SIRT2 [2]; [9]) [nM] | further results
1 | CCCCCCCCCCCCc1cn(CCCC[C@H](NC(=O)[C@H](CCCCN)NC(C)=O)C(N)=O)nn1 [Compound 6a] | 8200 ± 400 | < 100 | 230 ± 20 | 36 ± 2 | 460 ± 40 | –
2 | Cc1cc(C)nc(SCC(=O)Nc2ncc(Cc3cccc(OCc4cn(Cc5ccc(OCCN6CCOCC6)cc5)nn4)c3)s2)n1 [Compound 2, reference compound] | – | 120 ± 10 | – | – | 50 ± 10 | SIRT3 (deac.) IC50 (SIRT3): n.i.; SIRT1 (deac.) IC50 (SIRT1): n.i.
3 | CCCCCCCCCCCCc1cn(CCCC[C@H](NC(=O)[C@H](CCCCN)NC(=O)[C@@H]2CCCN2C(C)=O)C(=O)N[C@H](C(N)=O)[C@@H](C)O)nn1 [Compound 6b] | – | – | – | – | – | inhibition after washout [3]: retained full inhibition throughout; extent of cellular target engagement [4]: complete target engagement
4 | CCCCCCCCCCCCc1cn(CCC[C@H](NC(=O)[C@H](CCCCN)NC(=O)[C@@H]2CCCN2C(=O)[C@H](CC(C)C)NC(=O)[C@H](C)NC(=O)[C@H](CCC(=O)O)NC(C)=O)C(=O)N[C@H](C(=O)NCC(=O)NCC(N)=O)[C@@H](C)O)nn1 [Compound 5] | 3300 ± 200 | < 100 | 14200 ± 1500 | 760 ± 250 | 1940 ± 510 | ΔTm at 10 µM (SIRT2 [5]): 9.9 °C
5 | Sirtuin 2 (SIRT2) (enzyme) MAEPDPSHPLETQAGKVQEAQDSDSDSEGGAAGGEADMDFLRNLFSQTLSLGSQKERLLDELTLEGVARYMQSERCRRVICLVGAGISTSAGIPDFRSPSTGLYDNLEKYHLPYPEAIFEISYFKKHPEPFFALAKELYPGQFKPTICHYFMRLLKDKGLLLRCYTQNIDTLERIAGLEQEDLVEAHGTFYTSHCVSASCRHEYPLSWMKEKIFSEVTPKCEDCQSLVKPDIVFFGESLPARFFSCMQSDFLKVDLLLVMGTSLQVQPFASLISKAPLSTPRLLINKEKAGQSDPFLGMIMGLGGGMDFDSKKAYRDVAWLGECDQGCLALAELLGWKKELEDLVRREHASIDAQSGAGVPNPSTSASPKKSPPPAKDEARTTEREKPQ | – | – | – | – | – | koff [6]: 0.0071 s⁻¹; koff [7]: 0.00026 s⁻¹
